# Where two headings read alike, the source gives them in different places.
# Experiments:
# Assay type in all cases: cell-based
# [1] = tested on: S. aureus ATCC 29213; assay: MIC broth microdilution, standard strain; settings: Staphylococcus aureus, ATCC29213; S. aureus ATCC 29213, standard strain, 19 h at 35 °C; read-out: minimal inhibitory concentration (MIC)
# Procedure: (§1) All synthesized compounds were tested in vitro against a set of bacteria, including representative standard Gram-positive and Gram-negative rods. Compounds were screened for their minimal inhibitory concentrations (MICs). […] The antimicrobial assays were conducted using reference strains of bacteria derived from international microbe collections: American Type Culture Collection (ATCC) and National Collection of Type Culture (NCTC). The following standard strains of bacteria were used: Gram-positive-Staphylococcus aureus NCTC 4163, Staphylococcus aureus ATCC 25923, Staphylococcus aureus ATCC 6538, Staphylococcus aureus ATCC 29213, Staphylococcus epidermidis ATCC 12228, Staphylococcus epidermidis ATCC 35984, Gram-negative: Escherichia coli ATCC 25922, Pseudomonas aeruginosa ATCC 15442. Clinical strains of bacteria used in this study: Gram-positive: Staphylococcus epidermidis 5253, Staphylococcus epidermidis 4243, Staphylococcus aureus […], Staphylococcus aureus […] and Gram-negative: Escherichia coli 520, Escherichia coli 600, Klebsiella pneumoniae 510 and Pseudomonas aeruginosa 659 were obtained from the collection of the Department of Pharmaceutical Microbiology, Medical University of Warsaw, Poland and they were isolated from different biological materials taken from the patients hospitalized in the Warsaw Medical University hospitals. […] MIC was determined by the two-fold serial broth microdilution method in 96-well microtitration plates using Mueller-Hinton II broth medium (Becton Dickinson, Franklin Lakes, NJ, USA). The final inoculum of all studied bacteria was 10^6 CFU/mL (colony forming unit per milliliter). The stock solution of tested compounds was prepared in dimethyl sulfoxide (DMSO) and diluted to a maximum of 1% of solvent content with a sterile medium.
# [2] = tested on: S. epidermidis ATCC 12228; assay: MIC broth microdilution, standard strain; settings: Staphylococcus epidermidis, ATCC12228; S. epidermidis ATCC 12228, standard strain, 19 h at 35 °C; read-out: minimal inhibitory concentration (MIC)
# Procedure: as §1
# [3] = tested on: S. aureus ATCC 6538; assay: MIC broth microdilution, standard strain; settings: Staphylococcus aureus, ATCC6538; S. aureus ATCC 6538, standard strain, 19 h at 35 °C; read-out: minimal inhibitory concentration (MIC)
# Procedure: as §1
# [4] = tested on: S. epidermidis ATCC 35984; assay: MIC broth microdilution, standard strain; settings: Staphylococcus epidermidis, ATCC35984; S. epidermidis ATCC 35984, standard strain, 19 h at 35 °C; read-out: minimal inhibitory concentration (MIC)
# Procedure: as §1
# [5] = tested on: standard bacteria strains; assay: MIC ranges over the panel of standard strains
# Procedure: All synthesized compounds were tested in vitro against a set of bacteria, including representative standard Gram-positive and Gram-negative rods. Compounds were screened for their minimal inhibitory concentrations (MICs). […] These three compounds were also found to be good inhibitors of the growth of Gram-negative rods: […] The antimicrobial assays were conducted using reference strains of bacteria derived from international microbe collections: American Type Culture Collection (ATCC) and National Collection of Type Culture (NCTC). The following standard strains of bacteria were used: Gram-positive-Staphylococcus aureus NCTC 4163, Staphylococcus aureus ATCC 25923, Staphylococcus aureus ATCC 6538, Staphylococcus aureus ATCC 29213, Staphylococcus epidermidis ATCC 12228, Staphylococcus epidermidis ATCC 35984, Gram-negative: Escherichia coli ATCC 25922, Pseudomonas aeruginosa ATCC 15442. Clinical strains of bacteria used in this study: Gram-positive: Staphylococcus epidermidis 5253, Staphylococcus epidermidis 4243, Staphylococcus aureus […], Staphylococcus aureus […] and Gram-negative: Escherichia coli 520, Escherichia coli 600, Klebsiella pneumoniae 510 and Pseudomonas aeruginosa 659 were obtained from the collection of the Department of Pharmaceutical Microbiology, Medical University of Warsaw, Poland and they were isolated from different biological materials taken from the patients hospitalized in the Warsaw Medical University hospitals. Antimicrobial activity was examined by the minimal inhibitory concentration (MIC) method under standard procedures provided by CLSI with some modifications. MIC was determined by the two-fold serial broth microdilution method in 96-well microtitration plates using Mueller-Hinton II broth medium (Becton Dickinson, Franklin Lakes, NJ, USA). The final inoculum of all studied bacteria was 10^6 CFU/mL (colony forming unit per milliliter). The stock solution of tested compounds was prepared in dimethyl sulfoxide (DMSO) and diluted to a maximum of 1% of solvent content with a sterile medium.
# [6] = tested on: clinical strains (S. aureus, S. epidermidis, E. coli, K. pneumoniae, P. aeruginosa); assay: MIC ranges over the panel of clinical strains
# Procedure: In the next stage of the experiment, 8 of 11 compounds were selected for a clinical strain activity evaluation against S. aureus, S. epidermidis, E. coli, K. pneumoniae, and P. aeruginosa. […] Additionally, all three inhibited the growth of all clinical Staphylococci panels: S. aureus (T5592; T5591) and S. epidermidis (5253; 4243) with MIC values of 0.8 μg/mL.
# The antimicrobial assays were conducted using reference strains of bacteria derived from international microbe collections: American Type Culture Collection (ATCC) and National Collection of Type Culture (NCTC). The following standard strains of bacteria were used: Gram-positive—Staphylococcus aureus NCTC 4163, Staphylococcus aureus ATCC 25923, Staphylococcus aureus ATCC 6538, Staphylococcus aureus ATCC 29213, Staphylococcus epidermidis ATCC 12228, Staphylococcus epidermidis ATCC 35984, Gram-negative: Escherichia coli ATCC 25922, Pseudomonas aeruginosa ATCC 15442. Clinical strains of bacteria used in this study: Gram-positive: Staphylococcus epidermidis 5253, Staphylococcus epidermidis 4243, Staphylococcus aureus T5592, Staphylococcus aureus T5591 and Gram-negative: Escherichia coli 520, Escherichia coli 600, Klebsiella pneumoniae 510 and Pseudomonas aeruginosa 659 were obtained from the collection of the Department of Pharmaceutical Microbiology, Medical University of Warsaw, Poland and they were isolated from different biological materials taken from the patients hospitalized in the Warsaw Medical University hospitals. Antimicrobial activity was examined by the minimal inhibitory concentration (MIC) method under standard procedures provided by CLSI with some modifications. MIC was determined by the two-fold serial broth microdilution method in 96-well microtitration plates using Mueller–Hinton II broth medium (Becton Dickinson, Franklin Lakes, NJ, USA). The final inoculum of all studied bacteria was 10^6 CFU/mL (colony forming unit per milliliter). The stock solution of tested compounds was prepared in dimethyl sulfoxide (DMSO) and diluted to a maximum of 1% of solvent content with a sterile medium.
# [7] = Gram-negative rods: E. coli and P. aeruginosa (standard strains)
# [8] = against standard Gram-positive Staphylococci
# [9] = 19 h, clinical (hospital) strains, read-out: MIC values, range
# [10] = all clinical Staphylococci panels: S. aureus (T5592; T5591) and S. epidermidis (5253; 4243), read-out: MIC values
# [11] = 19 h, against Gram-positive clinical strains, read-out: MIC values, range
MIC [1] [µg/mL],MIC [2] [µg/mL],MIC [3] [µg/mL],MIC [4] [µg/mL],"MIC [6, 11] [µg/mL]",Compound,"MIC values, range [5, 7] [µg/mL]","MIC values, range [5, 8] [µg/mL]","MIC [6, 9] [µg/mL]","MIC [6, 10] [µg/mL]"
4,16,2,4,2 to 32,"CC1=C(C)C2(C)CC1(C)C1C(=O)N(Nc3nnnn3-c3ccccc3)C(=O)C12 (stereo not shown) [Compound 6, 4,5,6,7-Tetramethyl-2-((1-phenyl-1H-tetrazol-5-yl)amino)-3a,4,7,7a-tetrahydro-1H-4,7-methanoisoindole-1,3(2H)-dione]",,,,
8,16,8,16,2 to 32,"CC(C)C12C=CC(C)(CC1)C1C(=O)N(Nc3nnnn3-c3ccc([N+](=O)[O-])cc3)C(=O)C12 (stereo not shown) [Compound 8, 4-Isopropyl-7-methyl-2-((1-(4-nitrophenyl)-1H-tetrazol-5-yl)amino)-3a,4,7,7a-tetrahydro-1H-4,7-ethanoisoindole-1,3(2H)-dione]",,,,
16,32,32,32,2 to 32,"CC1=C(C)C2(C)CC1(C)C1C(=O)N(Nc3nnnn3-c3ccc([N+](=O)[O-])cc3)C(=O)C12 (stereo not shown) [Compound 4, 4,5,6,7-Tetramethyl-2-((1-(4-nitrophenyl)-1H-tetrazol-5-yl)amino)-3a,4,7,7a-tetrahydro-1H-4,7-methanoisoindole-1,3(2H)-dione]",,,,
8,32,4,8,2 to 32,"Cc1ccc(-n2nnnc2NN2C(=O)C3C(C2=O)C2(C(C)C)C=CC3(C)CC2)cc1 (stereo not shown) [Compound 10, 4-Isopropyl-7-methyl-2-((1-(p-tolyl)-1H-tetrazol-5-yl)amino)-3a,4,7,7a-tetrahydro-1H-4,7-ethanoisoindole-1,3(2H)-dione]",,,,
64,128,64,64,2 to 32,"CC(C)C12C=CC(C)(CC1)C1C(=O)N(Nc3nnnn3-c3ccccc3Br)C(=O)C12 (stereo not shown) [Compound 9, 2-((1-(2-Bromophenyl)-1H-tetrazol-5-yl)amino)-4-isopropyl-7-methyl-3a,4,7,7a-tetrahydro-1H-4,7-ethanoisoindole-1,3(2H)-dione]",,,,

Compound,MIC [1] [µg/mL],MIC [2] [µg/mL],MIC [3] [µg/mL],MIC [4] [µg/mL],"MIC [6, 11] [µg/mL]","MIC values, range [5, 7] [µg/mL]","MIC values, range [5, 8] [µg/mL]","MIC [6, 9] [µg/mL]","MIC [6, 10] [µg/mL]"
"CC1=C(C)C2(C)CC1(C)C1C(=O)N(Nc3nnnn3-c3ccccc3Cl)C(=O)C12 (stereo not shown) [Compound 2, 2-((1-(2-Chlorophenyl)-1H-tetrazol-5-yl)amino)-4,5,6,7-tetramethyl-3a,4,7,7a-tetrahydro-1H-4,7-methanoisoindole-1,3(2H)-dione]",0.8,3.2,0.4,0.4,,0.4 to 25.6,0.1 to 3.2,0.8 to 3.2,0.8
"CC1=C(C)C2(C)CC1(C)C1C(=O)N(Nc3nnnn3-c3cccc(C(F)(F)F)c3)C(=O)C12 (stereo not shown) [Compound 1, 4,5,6,7-Tetramethyl-2-((1-(3-(trifluoromethyl)phenyl)-1H-tetrazol-5-yl)amino)-3a,4,7,7a-tetrahydro-1H-4,7-methanoisoindole-1,3(2H)-dione]",0.2,3.2,0.2,0.2,,0.4 to 25.6,0.1 to 3.2,0.8 to 3.2,0.8
"CC1=C(C)C2(C)CC1(C)C1C(=O)N(Nc3nnnn3-c3ccccc3Br)C(=O)C12 (stereo not shown) [Compound 3, 2-((1-(2-Bromophenyl)-1H-tetrazol-5-yl)amino)-4,5,6,7-tetramethyl-3a,4,7,7a-tetrahydro-1H-4,7-methanoisoindole-1,3(2H)-dione]",0.2,2,0.2,0.2,,0.4 to 25.6,0.1 to 3.2,0.8 to 3.2,0.8

# Reference: article PMC8745314, “Novel Tetrazole-Based Antimicrobial Agents Targeting Clinical Bacteria Strains: Exploring the Inhibition of Staphylococcus aureus DNA Topoisomerase IV and Gyrase” (International Journal of Molecular Sciences, 2021)
